For data set [1] the following is noted: Liquid; for mass density: 298.15 K, 101.33 kPa, Pycnometric method.
A short description of data set [2]: excess molar enthalpy (molar enthalpy of mixing); xn = mol fraction of the nth substance listed. As to conditions: 298.15 K, 101 kPa, Liquid, Calvet calorimetry.

These results are taken from the NIST ThermoML archive (doi:10.1021/je2002495).

Numbers after ± are expanded uncertainties.

By mass density is commonly meant the mass of a sample divided by its volume. In the case of `c1ccncc1` [pyridine], the mass density in data set [1] was 981.3 ± 0.9 kg/m3. Besides, the Normal boiling temperature in data set [1] (Distillation) was found to be 114.8 ± 1.1 °C.
Take `c1ccncc1` [pyridine] + O: the excess molar enthalpy in data set [2] (x1 = 0.095) was -0.0945 ± 0.00574 kcal/mol; in data set [2] (x1 = 0.199), -0.207 ± 0.0124 kcal/mol; in data set [2] (x1 = 0.298) it was -0.261 ± 0.0158 kcal/mol; in data set [2] (x1 = 0.403), -0.294 ± 0.0177 kcal/mol; in data set [2] (x1 = 0.505), -0.306 ± 0.0184 kcal/mol; in data set [2] (x1 = 0.601) it was -0.295 ± 0.0179 kcal/mol. The results for the excess molar enthalpy in data set [2] (x1 = 0.703), in data set [2] (x1 = 0.807) and in data set [2] (x1 = 0.904) were -0.27 ± 0.0163 kcal/mol, -0.208 ± 0.0127 kcal/mol and -0.0813 ± 0.00502 kcal/mol, respectively.
With `O` [water], the mass density in data set [1] was 996.5 ± 0.9 kg/m3.
